Measured values published in patent publication US11684614B2, “Formulations of hydroxypyridonate actinide/lanthanide decorporation agents” (priority 2017, dated 2023).

Experiment: Repeated-treatment efficacy for removing an intravenous dose of 238Pu (excretion, tissue retention, clinical observations), female and male arms
Assay type: in vivo, Swiss-Webster mice
Conditions: female mice; for ^238Pu percent increase in excretion, Total Excretion / ^238Pu percent increase in excretion, Total Feces / ^238Pu percent increase in excretion, Total Urine: over untreated control group; for ^238Pu percent tissue reduction, GI Tract / ^238Pu percent tissue reduction, Kidney / ^238Pu percent tissue reduction, Liver / ^238Pu percent tissue reduction, Soft Tissue / ^238Pu percent tissue reduction, Total Body / ^238Pu percent tissue reduction, Total Bone: vs untreated control group
Protocol: The objective of this study was to characterize the efficacy of 3,4,3-L1(1,2-HOPO) at enhancing elimination from an internal plutonium burden in female and male Swiss-Webster mice administered a soluble citrate complex of ^238Pu and treated multiple times, starting at 24 hours after the exposure. Efficacy was evaluated by comparing the tissue contents, urinary and fecal excretions of ^238Pu in treated animals versus untreated animals.
The medical countermeasure 3,4,3-L1(1,2-HOPO) was administered parenterally (ip) or orally (po) via consecutive injections or gavages (six daily or twelve twice daily) starting at 24 hours post contamination at the following four selected doses: 30 μmol/kg ip, 150 μmol/kg po, 300 μmol/kg po, and 600 μmol/kg po (equivalent to respective approximate human doses range of […], using the accepted conversion system of mouse doses into human equivalent doses—HED—based on body surface area). Oral doses also included the permeability enhancer selected during formulation development work.
• Challenge isotope: ^238Pu • Challenge dose: 25 nCi (i.e., approximately 0.8 μCi/kg) • Route of contamination: Intravenous (iv) tail-vein • Route of treatment: Intraperitoneal Injection (ip) or Oral (po) • Frequency of treatment: Multiple (once- or twice-daily for 6 days) doses, starting 24 hr postcontamination • Treatment dose calculation: Dose calculations (mg/kg or μmol/kg) for the decorporation agent were based on the individual body weight measured after contamination. • Study Duration: 11 days, in-life
c. […] Test article and control dose formulations were prepared within 1 day of dose administration, by weighing out the appropriate amount of test article, dispersing in vehicle. For ip solutions, the test article was used alone, while for oral suspensions, a mixture of test article and excipient (90:10, w:w) was used. The pH was adjusted to 7.0-7.4 for ip administration and 5.0-5.5 for oral administration with sterile NaOH. Dose formulations were prepared at room temperature and filter-sterilized. • Storage: 2-8° C.; refrigerated; protected from light. • Characterization: The concentration of each test article formulation was verified by high-performance liquid chromatography-mass spectrometry. • Test Article Handling: Test, reference, and control article formulations were handled with the use of eye protection, gloves, and a protective laboratory coat. • Correct Dose Assurance: The test article was weighed with calibrated balances. The administration of each dose formulation was properly documented, and the amount administered to each animal recorded.
e. Experimental Procedures (In-Life Evaluations and Euthanasia) • Contamination: Single administration by intravenous (iv) tail-vein injection (0.2 mL injection volume) under isoflurane anesthesia. Three standard 0.2 mL injections were performed into polyethylene bottles and pre-loaded with aliquots of concentrated nitric acid on each injection day. Six female and six male mice were culled for necropsy 1 hr post-contamination and were used as standards. A11 standards were processed and counted together with the final samples to allow verification of the contamination dose. • Dose Administration: Single administration by intraperitoneal injection (ip) or oral gavage (po) under isoflurane anesthesia. • Mortality/Morbidity: Assessed at least once daily. • Clinical Observations: Recorded once daily (4 hr post-dose on day of treatment), or more often as clinical signs warranted. […]

[1] = 30 μmol/kg, IP, 11-day necropsy
[2] = 150 μmol/kg, 2 doses PO, 7-day necropsy
[3] = 300 μmol/kg, 1 dose PO, 7-day necropsy
[4] = 300 μmol/kg, 1 dose PO, 11-day necropsy
[5] = 300 μmol/kg, 1 doses PO, 7-day necropsy
[6] = 300 μmol/kg, 2 doses PO, 7-day necropsy
[7] = 300 μmol/kg, PO, 11-day necropsy
[8] = 600 μmol/kg, 1 dose PO, 7-day necropsy
[9] = 600 μmol/kg, 1 dose PO, 11-day necropsy
[10] = 600 μmol/kg, PO, 11-day necropsy

## O=C(NCCCN(CCCCN(CCCNC(=O)c1cccc(=O)n1O)C(=O)c1cccc(=O)n1O)C(=O)c1cccc(=O)n1O)c1cccc(=O)n1O [Formulation 343]
[1]
  ^238Pu excretion, Total Excretion, Avg: 79.37 percent recovered dose
  ^238Pu excretion, Total Feces, Avg: 41.80 percent recovered dose
  ^238Pu excretion, Total Urine, Avg: 37.57 percent recovered dose
  ^238Pu retention, GI Tract, Avg: 0.59 percent recovered dose
  ^238Pu retention, Kidney, Avg: 0.11 percent recovered dose
  ^238Pu retention, Liver, Avg: 2.79 percent recovered dose
  ^238Pu retention, Soft Tissue, Avg: 1.40 percent recovered dose
  ^238Pu retention, Total Body, Avg: 20.63 percent recovered dose
  ^238Pu retention, Total Bone, Avg: 15.74 percent recovered dose
  ^238Pu percent increase in excretion, Total Excretion: 157.74%
  ^238Pu percent increase in excretion, Total Feces: 146.77%
  ^238Pu percent increase in excretion, Total Urine: 172.05%
  ^238Pu percent tissue reduction, GI Tract: 55.96%
  ^238Pu percent tissue reduction, Kidney: 58.43%
  ^238Pu percent tissue reduction, Liver: 76.81%
  ^238Pu percent tissue reduction, Soft Tissue: 50.90%
  ^238Pu percent tissue reduction, Total Body: 58.48%
  ^238Pu percent tissue reduction, Total Bone: 52.58%
[2]
  ^238Pu excretion, Total Excretion, Avg: 62.18 percent recovered dose
  ^238Pu excretion, Total Feces, Avg: 33.16 percent recovered dose
  ^238Pu excretion, Total Urine, Avg: 29.02 percent recovered dose
  ^238Pu retention, GI Tract, Avg: 1.20 percent recovered dose
  ^238Pu retention, Kidney, Avg: 0.23 percent recovered dose
  ^238Pu retention, Liver, Avg: 12.83 percent recovered dose
  ^238Pu retention, Soft Tissue, Avg: 1.64 percent recovered dose
  ^238Pu retention, Total Body, Avg: 37.82 percent recovered dose
  ^238Pu retention, Total Bone, Avg: 21.92 percent recovered dose
  ^238Pu percent increase in excretion, Total Excretion: 129.85%
  ^238Pu percent increase in excretion, Total Feces: 146.48%
  ^238Pu percent increase in excretion, Total Urine: 114.93%
  ^238Pu percent tissue reduction, GI Tract: 35.66%
  ^238Pu percent tissue reduction, Kidney: 43.29%
  ^238Pu percent tissue reduction, Liver: 31.41%
  ^238Pu percent tissue reduction, Soft Tissue: 19.55%
  ^238Pu percent tissue reduction, Total Body: 27.43%
  ^238Pu percent tissue reduction, Total Bone: 24.67%
[3]
  ^238Pu excretion, Total Excretion, Avg: 63.26 percent recovered dose
  ^238Pu excretion, Total Feces, Avg: 34.34 percent recovered dose
  ^238Pu excretion, Total Urine, Avg: 28.92 percent recovered dose
  ^238Pu retention, GI Tract, Avg: 1.20 percent recovered dose
  ^238Pu retention, Kidney, Avg: 0.26 percent recovered dose
  ^238Pu retention, Liver, Avg: 10.22 percent recovered dose
  ^238Pu retention, Soft Tissue, Avg: 1.74 percent recovered dose
  ^238Pu retention, Total Body, Avg: 36.74 percent recovered dose
  ^238Pu retention, Total Bone, Avg: 23.31 percent recovered dose
  ^238Pu percent increase in excretion, Total Excretion: 142.38%
  ^238Pu percent increase in excretion, Total Feces: 197.06%
  ^238Pu percent increase in excretion, Total Urine: 107.09%
[4]
  ^238Pu retention, GI Tract, Avg: 1.02 percent recovered dose
  ^238Pu retention, Kidney, Avg: 0.17 percent recovered dose
  ^238Pu retention, Liver, Avg: 6.02 percent recovered dose
  ^238Pu retention, Soft Tissue, Avg: 2.06 percent recovered dose
  ^238Pu retention, Total Body, Avg: 28.11 percent recovered dose
  ^238Pu retention, Total Bone, Avg: 18.85 percent recovered dose
  ^238Pu percent tissue reduction, GI Tract: 25.61%
  ^238Pu percent tissue reduction, Kidney: 37.82%
  ^238Pu percent tissue reduction, Liver: 55.06%
  ^238Pu percent tissue reduction, Soft Tissue: 22.98%
  ^238Pu percent tissue reduction, Total Body: 42.51%
  ^238Pu percent tissue reduction, Total Bone: 39.58%
[5]
  ^238Pu percent tissue reduction, GI Tract: 11.06%
  ^238Pu percent tissue reduction, Kidney: 20.17%
  ^238Pu percent tissue reduction, Liver: 38.39%
  ^238Pu percent tissue reduction, Soft Tissue: 25.25%
  ^238Pu percent tissue reduction, Total Body: 33.88%
  ^238Pu percent tissue reduction, Total Bone: 33.33%
[6]
  ^238Pu excretion, Total Excretion, Avg: 66.57 percent recovered dose
  ^238Pu excretion, Total Feces, Avg: 35.68 percent recovered dose
  ^238Pu excretion, Total Urine, Avg: 30.90 percent recovered dose
  ^238Pu retention, GI Tract, Avg: 1.25 percent recovered dose
  ^238Pu retention, Kidney, Avg: 0.18 percent recovered dose
  ^238Pu retention, Liver, Avg: 6.85 percent recovered dose
  ^238Pu retention, Soft Tissue, Avg: 1.62 percent recovered dose
  ^238Pu retention, Total Body, Avg: 33.43 percent recovered dose
  ^238Pu retention, Total Bone, Avg: 23.54 percent recovered dose
  ^238Pu percent increase in excretion, Total Excretion: 139.02%
  ^238Pu percent increase in excretion, Total Feces: 157.58%
  ^238Pu percent increase in excretion, Total Urine: 122.37%
  ^238Pu percent tissue reduction, GI Tract: 33.06%
  ^238Pu percent tissue reduction, Kidney: 56.34%
  ^238Pu percent tissue reduction, Liver: 63.39%
  ^238Pu percent tissue reduction, Soft Tissue: 20.76%
  ^238Pu percent tissue reduction, Total Body: 35.85%
  ^238Pu percent tissue reduction, Total Bone: 19.10%
[7]
  ^238Pu excretion, Total Excretion, Avg: 71.89 percent recovered dose
  ^238Pu excretion, Total Feces, Avg: 37.63 percent recovered dose
  ^238Pu excretion, Total Urine, Avg: 34.27 percent recovered dose
  ^238Pu percent increase in excretion, Total Excretion: 140.66%
  ^238Pu percent increase in excretion, Total Feces: 162.86%
  ^238Pu percent increase in excretion, Total Urine: 122.35%
[8]
  ^238Pu excretion, Total Excretion, Avg: 67.37 percent recovered dose
  ^238Pu excretion, Total Feces, Avg: 30.80 percent recovered dose
  ^238Pu excretion, Total Urine, Avg: 36.57 percent recovered dose
  ^238Pu retention, GI Tract, Avg: 1.24 percent recovered dose
  ^238Pu retention, Kidney, Avg: 0.23 percent recovered dose
  ^238Pu retention, Liver, Avg: 12.48 percent recovered dose
  ^238Pu retention, Soft Tissue, Avg: 1.62 percent recovered dose
  ^238Pu retention, Total Body, Avg: 32.63 percent recovered dose
  ^238Pu retention, Total Bone, Avg: 17.06 percent recovered dose
  ^238Pu percent increase in excretion, Total Excretion: 151.63%
  ^238Pu percent increase in excretion, Total Feces: 176.75%
  ^238Pu percent increase in excretion, Total Urine: 135.42%
  ^238Pu percent tissue reduction, GI Tract: 8.30%
  ^238Pu percent tissue reduction, Kidney: 29.85%
  ^238Pu percent tissue reduction, Liver: 24.79%
  ^238Pu percent tissue reduction, Soft Tissue: 30.25%
  ^238Pu percent tissue reduction, Total Body: 41.28%
  ^238Pu percent tissue reduction, Total Bone: 51.23%
[9]
  ^238Pu retention, GI Tract, Avg: 0.83 percent recovered dose
  ^238Pu retention, Kidney, Avg: 0.14 percent recovered dose
  ^238Pu retention, Liver, Avg: 5.60 percent recovered dose
  ^238Pu retention, Soft Tissue, Avg: 2.01 percent recovered dose
  ^238Pu retention, Total Body, Avg: 26.78 percent recovered dose
  ^238Pu retention, Total Bone, Avg: 18.20 percent recovered dose
  ^238Pu percent tissue reduction, GI Tract: 39.39%
  ^238Pu percent tissue reduction, Kidney: 48.77%
  ^238Pu percent tissue reduction, Liver: 58.17%
  ^238Pu percent tissue reduction, Soft Tissue: 24.63%
  ^238Pu percent tissue reduction, Total Body: 45.22%
  ^238Pu percent tissue reduction, Total Bone: 41.64%
[10]
  ^238Pu excretion, Total Excretion, Avg: 73.22 percent recovered dose
  ^238Pu excretion, Total Feces, Avg: 34.70 percent recovered dose
  ^238Pu excretion, Total Urine, Avg: 38.52 percent recovered dose
  ^238Pu percent increase in excretion, Total Excretion: 143.25%
  ^238Pu percent increase in excretion, Total Feces: 150.20%
  ^238Pu percent increase in excretion, Total Urine: 137.53%
